Experimental data taken from patent US8323925B2, “Aβ-binding protein and its peptide derivatives and uses thereof” (priority 2005, dated 2012).
No end group written: not given here. His‑tag = His-Tag conjugated at the N-terminus

Columns and labels:
[1] = format: in vitro ADME
From the text: (§1) These fusion proteins can be used not only to specifically deliver ABPs to the brain but also inside brain cells. This is particularly important since intracellular Aβ is believed to play a major role in synaptic dysfunction and neurodegeneration well before the accumulation of insoluble Aβ in senile plaques^6,7. Such pseudo vaccines would be administered, for example, subcutaneously, and further ingredients beyond a pharmacologically acceptable carrier would not be necessary. […] Recombinant Aβ binding peptide P4-5 (rABP, His-tag-[…]) was conjugated to BBB-permeable single-domain antibody FC5 (FIG. 8A). The FC5 conjugated peptide (FC5/ABP) bound AB1-42 equally well as the synthetic (sABP) or non-conjugated peptide (rABP) (FIG. 8B).

AB1-42 [2] = target: T1, AB1-42 (Homo sapiens, UniProt P05067); test: Aβ binding of FC5-conjugated peptide
From the text: as §1

primary cortical neurons = test: Toxicity in vitro against primary cortical neurons; format: cell-based; settings: data not shown
[3] = Stability in serum containing medium; format: in vitro ADME; settings: for stability in serum containing medium: up to 48 hrs
Experimental: (§2) All peptides P4, P5 and P4-5 are stable in serum containing medium for up to 48 hrs and also in rat blood plasma (FIG. 7). P4 peptide was incubated in culture medium containing 10% fetal calf serum for various time periods at 37° C. and the stability of p4 was tested by Western blot analysis using p4-specific antibody. No loss of P4 was detected over a 24 hour period.

CD-1 mice = test: Toxicity in vivo; set-up: species or system mouse; settings: up to 20 mg/kg body weight
[4] = Stability in rat blood plasma; format: in vitro ADME
Experimental: as §2

neuroblastoma cells = test: Toxicity in vitro against cultured neuroblastoma cells; format: cell-based; settings: data not shown
Experimental: Human neuroblastoma cells, SH-SY5Y were treated with 15 μM Aβ in the presense or absence of Aβ binding peptide p4-5 in serum-free medium for 48 hrs and cell death was assessed by Hoechst stain.

Aβ42-1 = test: Aβ-binding dot-blot assay, reverse peptide; settings: dot-blot (FIG. 1B)
Experimental: (§3) Aβ-binding of recombinant proteins PK-4 and PK-3 with N-terminus His-tag was determined by dot-blot assay using His-Tag antibody (A) or PK-4-specific antibody (B), and by Biacore analysis (C). β-binding PK-4 is a […] amino acid-long polypeptide that corresponds to sequence 1171-1314, and 1369-1380, of the human pericentriolar material protein-1, PCM-1.

Aβ40-1 = test: Aβ-binding dot-blot assay, reverse peptide; settings: dot-blot (FIG. 1B)
Experimental: as §3

Aβ1-42 = Aβ1-42 (Homo sapiens, UniProt P05067); test: Aβ-binding of recombinant proteins by dot-blot assay
Experimental: as §3

Aβ1-40 = Aβ1-40 (Homo sapiens, UniProt P05067); test: as above; settings: PK-4-specific antibody (FIG. 1B)
Experimental: as §3

AB1-42 [5] = target: T1, AB1-42; test: Biacore analysis; format: binding; settings: Biacore (FIG. 1C)
Experimental: as §3

rat brain PKC = test: PKC inhibitory activity in vitro; format: biochemical; settings: rat brain PKC (FIG. 5)
Experimental: Various synthetic peptides derived from PK-4 (see FIG. 2) were tested for PKC inhibitory activity in vitro using rat brain PKC.

Aβ1-42, sequence (P05067 672-713 limits assumed): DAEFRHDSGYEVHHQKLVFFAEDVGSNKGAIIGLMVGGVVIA
T1 sequence (P05067 672-713 limits assumed): as above
Aβ1-40, sequence (P05067 672-711 limits assumed): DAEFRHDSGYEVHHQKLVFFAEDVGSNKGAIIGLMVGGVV

With “FC5/ABP: Recombinant Aβ binding peptide P4-5 conjugated to BBB-permeable single-domain antibody FC5 ({His‑tag}-MPDPVDPTTVTKTFKTRKASAQASLASKDKTPKSKSKKRNSTQLKSRVKNI; also: conjugated to single-domain antibody FC5)” the “crossing of BBB in vitro” value [1] was “crossed the barrier” and the “binding of AB1-42 relative to synthetic or non-conjugated peptide” value (AB1-42 [2]) was “equally well”.

With “FSSMPDPVDPTTVTKTFKTRKASAQASLASKDKTPKSKSK [Peptide P4]” the “toxicity in vitro against primary cortical neurons” value (primary cortical neurons) was “no toxicity”, the “loss of peptide in culture medium containing 10% fetal calf serum” value ([3]; 37° C., over a 24 hour period, Western blot) was “No loss” and the “stability in serum containing medium” value [3] was “stable”. For the same molecule, the “apparent toxicity in vivo” value (CD-1 mice) was “none of the peptides, p4, p5, or p4-5 showed any apparent toxicity”, the “stability in rat blood plasma” value [4] was “stable” and the “toxicity in vitro against cultured neuroblastoma cells” value (neuroblastoma cells) was “no toxicity”.

For “His-tag-MPDPVDPTTVTKTFKTRKASAQASLASKDKTPKSKSKKRNSTQLKSRVKNI ({His‑tag}-MPDPVDPTTVTKTFKTRKASAQASLASKDKTPKSKSKKRNSTQLKSRVKNI) [rABP]”, the “crossing of BBB in vitro” value [1] was “did not cross the BBB”.

For “KDKTPKSKSKKRNSTQLKSRVKNITHARRILQQSNRNACN [Peptide P5]”, the “stability in serum containing medium” value [3] was “stable”, the “apparent toxicity in vivo” value (CD-1 mice) was “none of the peptides, p4, p5, or p4-5 showed any apparent toxicity” and the “stability in rat blood plasma” value [4] was “stable”.

For “KTFKTRKASAQASLASKDKTPKSKSKKRNSTQLKSRVKNI [Peptide P4-5]”, the “toxicity in vitro against primary cortical neurons” value (primary cortical neurons) was “no toxicity”, the “stability in serum containing medium” value [3] was “stable” and the “apparent toxicity in vivo” value (CD-1 mice) was “none of the peptides, p4, p5, or p4-5 showed any apparent toxicity”. The “stability in rat blood plasma” value [4] was “stable” and the “toxicity in vitro against cultured neuroblastoma cells” value (neuroblastoma cells) was “no toxicity”.

B1: PK-4: Recombinant 170 amino acid polypeptide (21 kDa), sequence 1171-1314 and 1369-1380 of human pericentriolar material protein-1, PCM-1 (protein)
chain: SGKTEYMAFPKPFESSSSIGAEKPRNKKLPEEEVESSRTPWLYEQEGEVEKPFIKTGFSVSVEKSTSSNRKNQLDTNGRRRQFDEESLESFSSMPDPVDPTTVTKTFKTRKASAQASLASKDKTPKSKSKKRNSTQLKSRVKNITHARRILQQSNRNACNEAPETGSDFSMFEA
For B1, the “binding of reverse peptide Aβ42-1” value (Aβ42-1) was “does not bind”, the “binding of reverse peptide Aβ40-1” value (Aβ40-1) was “does not bind” and the “selective binding of Aβ1-42” value (Aβ1-42; His-Tag antibody (FIG. 1A)) was “selectively binds Aβ1-42”. The “binding affinity for Aβ1-42” value (Aβ1-42; PK-4-specific antibody (FIG. 1B)) was “high affinity (nM range)”, the “binding affinity for Aβ1-40” value (Aβ1-40) was “high affinity (nM range)” and the “binding of AB1-42” value (AB1-42 [5]) was “High affinity-binding”. For the same molecule, the PKC inhibitory activity (rat brain PKC) was “inhibits”.
